Measurements as given in DBAASP.
≈ marks a conversion by molar mass, not a printed value. Where “and” joins values, the source holds several entries; their conditions need not be identical. Equal entries are not always repeated.

What was measured:
Test in all cases: ≥ marks a high value that may be exact or a test limit, other limits are often not marked, values filed in µg/mL are converted to µM
Staphylococcus aureus = test system: Staphylococcus aureus
Escherichia coli B = test system: Escherichia coli B
Bacillus subtilis 168 = test system: Bacillus subtilis 168
Pseudomonas aeruginosa = test system: Pseudomonas aeruginosa
[1] = test system: Staphylococcus aureus ATCC 2592
[2] = test system: Candida albicans ATCC 2002
[3] = test system: Escherichia coli ATCC 25922
Shigella dysenteriae = test system: Shigella dysenteriae
[4] = test system: Acinetobacter baumannii ATCC 19606
[5] = test system: Pseudomonas aeruginosa PAO1
[6] = test system: Staphylococcus aureus ATCC 25923
[7] = test system: Klebsiella pneumoniae ATCC 13883
[8] = test system: Salmonella enterica subsp. enterica serovar Typhimurium ATCC 14028
[9] = test system: Klebsiella pneumoniae ATCC 700603
[10] = test system: Bacillus subtilis ATCC 23857
[11] = test system: Pseudomonas aeruginosa ATCC 9027
[12] = test system: Staphylococcus epidermidis ATCC 12228
[13] = test system: Pseudomonas aeruginosa ATCC 27853
[14] = test system: Enterococcus faecalis ATCC 29212

CSCC[C@H](NC(=O)[C@H](Cc1cnc[nH]1)NC(=O)[C@H](C)NC(=O)[C@H](CCSC)NC(=O)[C@@H](NC(=O)[C@H](CCCCN)NC(=O)[C@@H]1CCCN1C(=O)[C@@H](N)CC(C)C)C(C)C)C(=O)N[C@@H](CCCCN)C(N)=O [LPKVMAHMK]
MIC (Staphylococcus aureus): 100 µM (≈ 105 µg/mL)
MIC (Escherichia coli B): ≥ 100 µM
MIC (Bacillus subtilis 168): ≥ 100 µM
MIC (Pseudomonas aeruginosa): 100 µM (≈ 105 µg/mL)

CC[C@H](C)[C@H](NC(=O)CNC(=O)[C@H](CO)NC(=O)[C@H](CC(C)C)NC(=O)[C@H](CC(C)C)NC(=O)CN)C(=O)N[C@@H](CC(C)C)C(=O)NCC(=O)N[C@@H](C)C(=O)NCC(=O)N[C@@H](CCCCN)C(=O)N[C@@H](Cc1cnc[nH]1)C(=O)N[C@H](C(=O)N[C@H](C(=O)N[C@H]1CSSC[C@@H](C(=O)N[C@@H](C)C(=O)N[C@@H](CCCCN)C(=O)N[C@@H](C)C(=O)O)NC(=O)CNC(=O)[C@H]([C@@H](C)O)NC(=O)[C@H](CC(C)C)NC(=O)CNC1=O)C(C)C)[C@@H](C)CC [GLLSGILGAGKHIVCGLTGCAKA]
MIC [1]: 4.38 µM (≈ 9.37 µg/mL)
MIC [2]: 8.76 µM (≈ 18.7 µg/mL)
MIC [3]: > 46.7 µM
MIC (Shigella dysenteriae): 17.5 µM (≈ 37.5 µg/mL)

CC(C)C[C@H](NC(=O)[C@H](C)NC(=O)[C@H](CCCN=C(N)N)NC(=O)[C@H](CCCN=C(N)N)NC(=O)[C@H](Cc1ccccc1)NC(=O)[C@H](C)NC(=O)[C@H](Cc1c[nH]c2ccccc12)NC(=O)CNC(=O)[C@H](CCCN=C(N)N)NC(=O)[C@@H](N)CCCN=C(N)N)C(=O)N[C@@H](C)C(=O)N[C@@H](Cc1ccc(O)cc1)C(=O)NCC(=O)N[C@@H](CCCN=C(N)N)C(=O)N[C@@H](CCCN=C(N)N)C(N)=O [RRGWAFRRALAYGRR]
MIC [4]: > 30 µM
MIC [5]: > 30 µM
MIC [6]: > 30 µM
MIC [7]: 30 µM (≈ 56.7 µg/mL)
MIC [3]: 22.2 µM and 30 µM
MIC [8]: 14.8 µM and 30 µM

CC[C@H](C)[C@H](NC(=O)[C@H](CCCCN)NC(=O)[C@H](CCCCN)NC(=O)[C@H](C)NC(=O)[C@@H](NC(=O)[C@H](C)NC(=O)[C@H](C)NC(=O)[C@H](CC(C)C)NC(=O)[C@H](C)NC(=O)[C@H](CCCCN)NC(=O)[C@H](CC(C)C)NC(=O)[C@H](CC(N)=O)NC(=O)CN)C(C)C)C(=O)N[C@@H](CC(C)C)C(N)=O [GNLKALAAVAKKIL]
MIC [9]: 128 µM (≈ 180 µg/mL)
MIC [10]: 8 µM (≈ 11.3 µg/mL)
MIC [6]: > 128 µM
MIC [11]: 64 µM (≈ 90.2 µg/mL)
MIC [3]: 64 µM (≈ 90.2 µg/mL)

C[C@@H](O)[C@H](NC(=O)[C@H](CCCCN)NC(=O)[C@H](Cc1c[nH]c2ccccc12)NC(=O)[C@H](CCCN=C(N)N)NC(=O)[C@H](CCCCN)NC(=O)[C@H](Cc1ccccc1)NC(=O)[C@H](Cc1ccccc1)NC(=O)CN)C(=O)N[C@@H](Cc1ccccc1)C(=O)N[C@@H](Cc1ccccc1)C(N)=O [GFFKRWKTFF]
MIC [9]: 32 µM (≈ 43.6 µg/mL)
MIC [10]: 16 µM (≈ 21.8 µg/mL)
MIC [4]: 64 µM (≈ 87.2 µg/mL)
MIC [6]: 16 µM (≈ 21.8 µg/mL)
MIC [12]: 4 µM (≈ 5.45 µg/mL)
MIC [13]: 8 µM (≈ 10.9 µg/mL)
MIC [14]: 64 µM (≈ 87.2 µg/mL)
MIC [3]: 16 µM (≈ 21.8 µg/mL)

CC[C@H](C)[C@H](NC(=O)[C@H](CCCCN)NC(=O)[C@H](CCCCN)NC(=O)[C@H](Cc1c[nH]c2ccccc12)NC(=O)[C@H](CC(N)=O)NC(=O)[C@@H](N)C(C)C)C(=O)N[C@@H](CC(C)C)C(=O)N[C@@H](CCCCN)C(=O)N[C@@H](CCCCN)C(=O)N[C@H](C(=O)N[C@H](C(=O)N[C@@H](CCCCN)C(=O)N[C@H](C(=O)N[C@@H](C)C(=O)N[C@@H](CCCCN)C(N)=O)C(C)C)[C@@H](C)CC)[C@@H](C)CC [VNWKKILKKIIKVAK]
MIC (Staphylococcus aureus): 15.6 µM (≈ 28.2 µg/mL)
MIC (Escherichia coli B): 0.7 µM (≈ 1.27 µg/mL)
MIC (Bacillus subtilis 168): 0.7 µM (≈ 1.27 µg/mL)
MIC (Pseudomonas aeruginosa): 26.1 µM (≈ 47.2 µg/mL)

CC[C@H](C)[C@H](NC(=O)CNC(=O)[C@H](C)NC(=O)[C@@H](NC(=O)[C@@H](NC(=O)CN)[C@@H](C)CC)[C@@H](C)CC)C(=O)NCC(=O)N[C@H](C(=O)N[C@@H](CCCCN)C(=O)N[C@H](C(=O)N[C@@H](CCCCN)C(=O)N[C@@H](CCCCN)C(N)=O)[C@@H](C)CC)[C@@H](C)CC [GIIAGIGIKIKK]
MIC [10]: ≥ 128 µM
MIC [3]: 64 µM (≈ 77.4 µg/mL)

CC[C@H](C)[C@H](NC(=O)[C@H](CCCCN)NC(=O)[C@H](CCCCN)NC(=O)[C@H](C)NC(=O)[C@@H](NC(=O)[C@H](C)NC(=O)[C@H](CC(C)C)NC(=O)[C@H](CC(C)C)NC(=O)[C@H](C)NC(=O)[C@H](CCCCN)NC(=O)[C@H](CC(C)C)NC(=O)[C@H](CC(N)=O)NC(=O)[C@@H](N)CCCCN)C(C)C)C(=O)N[C@@H](CC(C)C)C(N)=O [KNLKALLAVAKKIL]
MIC [9]: 16 µM (≈ 24.4 µg/mL)
MIC [10]: 8 µM (≈ 12.2 µg/mL)
MIC [6]: 64 µM (≈ 97.4 µg/mL)
MIC [11]: 8 µM (≈ 12.2 µg/mL)
MIC [3]: 8 µM (≈ 12.2 µg/mL)

CC[C@H](C)[C@H](NC(=O)CN)C(=O)N[C@H](C(=O)N[C@@H](C)C(=O)NCC(=O)N[C@H](C(=O)N[C@H](C(=O)N[C@H](C(=O)N[C@@H](CCCCN)C(=O)N[C@@H](C)C(=O)N[C@@H](CCCCN)C(=O)N[C@@H](CCCCN)C(N)=O)[C@@H](C)CC)[C@@H](C)CC)[C@@H](C)CC)[C@@H](C)CC [GIIAGIIIKAKK]
MIC [10]: ≥ 64 µM
MIC [3]: 128 µM (≈ 157 µg/mL)

CC[C@H](C)[C@H](NC(=O)[C@H](CCCCN)NC(=O)[C@H](CCCCN)NC(=O)[C@H](C)NC(=O)[C@@H](NC(=O)[C@H](C)NC(=O)CNC(=O)[C@H](CC(C)C)NC(=O)[C@H](C)NC(=O)[C@H](CCCCN)NC(=O)[C@H](CC(C)C)NC(=O)[C@H](CC(N)=O)NC(=O)[C@@H](N)CC(C)C)C(C)C)C(=O)N[C@@H](CC(C)C)C(N)=O [LNLKALGAVAKKIL]
MIC [9]: 64 µM (≈ 92.9 µg/mL)
MIC [10]: ≥ 32 µM
MIC [6]: 128 µM (≈ 186 µg/mL)
MIC [11]: 32 µM (≈ 46.4 µg/mL)
MIC [3]: 32 µM (≈ 46.4 µg/mL)

CC[C@H](C)[C@H](NC(=O)[C@H](Cc1cnc[nH]1)NC(=O)[C@H](CCCCN)NC(=O)[C@H](CC(C)C)NC(=O)[C@H](CC(C)C)NC(=O)[C@H](CO)NC(=O)[C@H](CCSC)NC(=O)[C@H](Cc1c[nH]c2ccccc12)NC(=O)[C@H](CCCCN)NC(=O)[C@@H](N)Cc1cnc[nH]1)C(=O)N[C@@H](CC(C)C)C(=O)N[C@@H](CCCCN)C(N)=O [HKWMSLLKHILK]
MIC (Staphylococcus aureus): 38.3 µM (≈ 58.7 µg/mL)
MIC (Escherichia coli B): 3.5 µM (≈ 5.37 µg/mL)
MIC (Bacillus subtilis 168): 1.5 µM (≈ 2.3 µg/mL)
MIC (Pseudomonas aeruginosa): 100 µM (≈ 153 µg/mL)

CSCC[C@H](NC(=O)[C@H](Cc1cnc[nH]1)NC(=O)[C@H](C)NC(=O)[C@H](CCSC)NC(=O)[C@@H](NC(=O)[C@H](CCCCN)NC(=O)[C@@H]1CCCN1)C(C)C)C(=O)N[C@@H](CCCCN)C(N)=O [PKVMAHMK]
MIC (Escherichia coli B): ≥ 100 µM
MIC (Bacillus subtilis 168): ≥ 100 µM

CC[C@H](C)[C@H](NC(=O)[C@H](CCCCN)NC(=O)[C@H](CCCCN)NC(=O)[C@H](Cc1c[nH]c2ccccc12)NC(=O)[C@H](CC(N)=O)NC(=O)[C@@H](N)C(C)C)C(=O)N[C@@H](CC(C)C)C(=O)NCC(=O)N[C@@H](CCCCN)C(=O)N[C@H](C(=O)N[C@H](C(=O)N[C@@H](CCCCN)C(=O)N[C@H](C(=O)N[C@H](C(=O)N[C@@H](CCCCN)C(=O)O)C(C)C)C(C)C)[C@@H](C)CC)[C@@H](C)CC [VNWKKILGKIIKVVK]
MIC (Staphylococcus aureus): 40 µM (≈ 70.7 µg/mL)
MIC (Escherichia coli B): 3.5 µM (≈ 6.18 µg/mL)
MIC (Bacillus subtilis 168): 1.2 µM (≈ 2.12 µg/mL)
MIC (Pseudomonas aeruginosa): 40 µM (≈ 70.7 µg/mL)

CC[C@H](C)[C@H](NC(=O)[C@H](CC(C)C)NC(=O)[C@H](Cc1cnc[nH]1)NC(=O)CNC(=O)[C@H](CC(C)C)NC(=O)[C@@H](NC(=O)[C@H](CCCCN)NC(=O)[C@@H]1CCCN1C(=O)[C@H](Cc1c[nH]c2ccccc12)NC(=O)[C@H](CCSC)NC(=O)CN)[C@@H](C)CC)C(=O)N[C@@H](CCCN=C(N)N)C(N)=O [GMWPKILGHLIR]
MIC (Staphylococcus aureus): 75 µM (≈ 106 µg/mL)
MIC (Escherichia coli B): ≥ 33.3 µM
MIC (Bacillus subtilis 168): 3 µM (≈ 4.26 µg/mL)
MIC (Pseudomonas aeruginosa): > 100 µM
